Our source for the IC50 values is patent US7973024B2, “24-sulfoximine vitamin D3 compounds” (Cyctochroma Inc., priority 2002, dated 2011).

In the experiment the target is T1, CYP27A1 (Homo sapiens, UniProt Q02318).
T1 sequence (Q02318 34-531): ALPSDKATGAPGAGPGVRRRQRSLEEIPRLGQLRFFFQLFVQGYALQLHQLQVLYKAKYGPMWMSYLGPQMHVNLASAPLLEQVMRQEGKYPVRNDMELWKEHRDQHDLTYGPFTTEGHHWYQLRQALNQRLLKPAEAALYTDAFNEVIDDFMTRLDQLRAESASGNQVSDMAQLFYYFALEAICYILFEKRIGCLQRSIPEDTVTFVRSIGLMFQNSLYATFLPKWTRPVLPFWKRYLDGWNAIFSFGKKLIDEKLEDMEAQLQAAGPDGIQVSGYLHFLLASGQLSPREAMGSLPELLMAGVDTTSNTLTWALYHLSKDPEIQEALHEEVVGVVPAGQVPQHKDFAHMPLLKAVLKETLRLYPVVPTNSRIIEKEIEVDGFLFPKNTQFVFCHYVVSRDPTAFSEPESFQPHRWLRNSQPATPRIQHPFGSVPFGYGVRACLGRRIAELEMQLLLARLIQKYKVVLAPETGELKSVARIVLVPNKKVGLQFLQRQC
In words: CYP27A1 enzyme assay. The experiment is classed as biochemical.

For `C=C1/C(=C\C=C2/CCC[C@]3(C)[C@@H]([C@H](C)CCS(=O)(=NC)c4ccccc4)CC[C@@H]23)C[C@@H](O)C[C@@H]1O` (single isomer, unassigned) [I(e)], the IC50 (usually the midpoint of a concentration-inhibition curve) is above 1000 nM. For `C=C1/C(=C\C=C2/CCC[C@]3(C)[C@@H]([C@H](C)CCS(=O)(=NC)c4ccccc4)CC[C@@H]23)C[C@@H](O)C[C@@H]1O` (single isomer, unassigned) [I(g)], the IC50 is above 1000 nM.
